Results: patent US6699681B2, “Endothelin converting enzymes and the amyloid β peptide” (Mayo Foundation for Medical Education and Research, priority 2000, dated 2004)
Entries after “also recorded” stand apart in the source; their conditions may differ.

Legend:
CHO cells = experiment: Aβ in conditioned medium of CHO cells (lack ECE activity) treated with phosphoramidon; type: cell-based, hamster; conditions: non-transfected CHO cells; high concentrations of phosphoramidon
Experimental: Human and guinea pig Aβ40 or Aβ42 was measured in plasma by sandwich ELISA as previously described (Suzuki et al., 1994, Science, 264:1336-1340) using the BAN-50/BA-27 or BAN-50/BC-05 antibody systems, respectively (Takeda; Japan). Hamster Aβ40- or Aβ42-derived from CHO cells was measured using the BNT-77/BA-27 or BNT-77/BC-05 antibody systems, respectively. Aβ concentration in samples was determined by comparison to synthetic Aβ40 or Aβ42 standards (Bachem, Switzerland). Data was obtained from triplicate wells.
In particular, the sandwich ELISA used herein was performed as follows: 96-well microtiter plates were coated overnight at 4° C. with 100 μl of a 5 μg/ml dilution of primary antibody in sodium carbonate coating buffer (SCCB; 0.1 M Na2CO3, pH 9.6). […] Plates were read at 450 nm in a SpectraMax Plus spectrophotometer (Molecular Devices; Sunnyvale, Calif.) and analyzed by SOFTmax® PRO software. Aβ40 or Aβ42 were quantitated by comparison with the values obtained for each synthetic Aβ standard from the same plate.
Cells were passaged into 6-well plates one day prior to treatment and grown to confluence. […] After treatment, the culture medium was harvested, spun at 14,000 xg, and the supernatant analyzed for Aβ40 or Aβ42 using sandwich ELISA and for secreted APP using Western blot. […]

SolECE-1 = target: T1, SolECE-1 (Homo sapiens, UniProt P42892); experiment: Inhibition of Aβ degradation by SolECE-1, sandwich ELISA; type: biochemical; conditions: inhibitor pre-incubated 15 min; phosphoramidon 150 μM; 24 hrs at 37° C.
T1 construct: a recombinant soluble form of ECE was generated (SolECE-1); made in house
T1 sequence (P42892 90-770 limits assumed): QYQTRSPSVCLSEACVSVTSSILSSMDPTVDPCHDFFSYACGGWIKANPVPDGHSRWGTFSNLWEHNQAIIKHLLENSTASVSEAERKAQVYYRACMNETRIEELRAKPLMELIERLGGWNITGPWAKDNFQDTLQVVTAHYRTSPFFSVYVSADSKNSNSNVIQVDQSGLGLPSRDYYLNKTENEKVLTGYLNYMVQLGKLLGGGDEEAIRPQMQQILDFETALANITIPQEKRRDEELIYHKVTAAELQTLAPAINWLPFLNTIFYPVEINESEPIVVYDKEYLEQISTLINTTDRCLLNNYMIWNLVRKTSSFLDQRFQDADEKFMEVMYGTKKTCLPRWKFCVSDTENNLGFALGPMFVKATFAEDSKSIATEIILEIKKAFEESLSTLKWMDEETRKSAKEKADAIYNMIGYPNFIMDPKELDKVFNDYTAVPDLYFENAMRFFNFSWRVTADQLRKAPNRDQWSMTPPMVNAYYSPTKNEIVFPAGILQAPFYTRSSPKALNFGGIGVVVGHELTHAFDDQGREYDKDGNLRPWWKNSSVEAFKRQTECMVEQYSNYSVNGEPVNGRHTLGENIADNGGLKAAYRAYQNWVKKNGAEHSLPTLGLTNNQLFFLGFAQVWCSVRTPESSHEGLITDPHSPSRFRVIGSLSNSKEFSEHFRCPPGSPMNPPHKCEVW
Experimental: SolECE-1 (approximately 0.2 μM) was pre-incubated for 15 min at room temperature with the ECE inhibitors PD069185 (synthesized according to published methods (Ahn et al., 1998, Biochem. Biophys. Res. Comm., 243:184-190) by the Mayo Clinic Organic Chemistry Core Facility, Jacksonville, Fla.) or phosphoramidon (150 μM), or an equal volume of vehicle (DMSO or PBS, respectively) prior to incubation with synthetic Aβ40 or Aβ42 (0.01 μM) in 50 mM MES (pH 6.5) containing 0.01% C12E10, 1 mM PMSF, 100 μM leupeptin, and 20 μM pepstatin. As a control, Aβ was incubated with Ni-NTA purified proteins from non-transfected CHO cells, or in reaction buffer alone. Following incubation for 24 hrs at 37° C., the reactions were stopped by the addition of 5 mM EDTA. Aβ concentration was then analyzed using a highly specific sandwich ELISA that captures Aβ via binding of antibody BAN-50 to the N-terminus, and detects only full-length Aβ peptides ending at residue 40 (using antibody BA-27) or 42 (using antibody BC-05). Thus, Aβ that has been further hydrolyzed will not be detected using this assay.

H4 neuroglioma cells = conditions: reported; cited from earlier work

## CC(C)C[C@H](NP(=O)(O)O[C@@H]1O[C@@H](C)[C@H](O)[C@@H](O)[C@H]1O)C(=O)N[C@@H](Cc1c[nH]c2ccccc12)C(=O)O [phosphoramidon]
CHO cells
  concentration of Aβ in the conditioned medium: did not affect; also recorded: unaffected
SolECE-1
  block of the SolECE-1-induced reduction of Aβ40 and Aβ42: completely blocked
H4 neuroglioma cells
  extracellular Aβ concentration: significant increase
